The species named for data set [1] is Rattus norvegicus. The data set can be described thus: Relative potency for the inhibition of insulin hormone release. Type of data set: functional.
Data set [2] is filed under the species Rattus norvegicus. As to the kind of experiment: Relative potency for the inhibition of glucagon hormone release; Active. Type of data set: functional, organism-based.
The species named for data set [3] is Rattus norvegicus. As to the kind of experiment: In vitro relative potency for the inhibition of growth hormone release. Format: functional.
For data set [4], the species on record is Rattus norvegicus. As to the kind of experiment: Relative potency for the inhibition of glucagon hormone release. Type of data set: functional.
The test system of data set [5] is Mus musculus. As to the kind of experiment: In vivo percentage weight reduction of tumor was determined at a dose of 0.26 umol/kg of the compound. Format: functional.
Data set [6] concerns COLO 320. As to the kind of experiment: In vitro effective concentration against COLO 320 cell line. Format: functional, cell-based. To be noted: Homo sapiens.
Data set [7] relates to LNCaP. As to the kind of experiment: In vitro effective concentration against LNCaP prostate cancer cell line. Type of data set: functional, cell-based. The following applies: Homo sapiens.
In data set [8] the test system is Mus musculus. The data set can be described thus: In vivo percentage reduction of prostate specific antigen (PSA) was determined at a dose of 0.26 umol/kg of the compound. Format: functional, Prostate gland.
For data set [9], the system named is T47D. The data set can be described thus: In vitro effective concentration against T47D cell line. Type of data set: functional, cell-based. The following applies: Homo sapiens.
For data set [10], the system named is Mus musculus. The data set can be described thus: In vivo maximum tolerated dose in nude mice was determined. Type of data set: functional.
Data set [11] relates to Mus musculus. As to the kind of experiment: In vivo maximum tolerated dose was determined. Type of data set: functional.
The nature of data set [12]: Half life period was determined. Format: ADME.
Data set [13] deals with DuPro. The data set can be described thus: In vitro effective concentration against DuPRO cancer cell line. Format: functional, cell-based. The following applies: Homo sapiens.
The species entered for data set [14] is Rattus norvegicus. As to the kind of experiment: Relative potency for the inhibition of growth hormone release. Type of data set: functional.

Calls of active or inactive are those of the source. Numbered stars: 1 amine (or outer) side, 2 acyl side, 3 side chain; on linkers, the order of the positions; unused ones are H or OH. Square brackets hold non-standard residues; d marks the D form. Peptide text beside a SMILES is read from it. * marks the point of attachment. ξ: configuration not given here. Doxorubicin(3'-N) = COc1cccc2c1C(=O)c1c(O)c3c(c(O)c1C2=O)C[C@@](O)(C(=O)CO)C[C@@H]3O[C@H]1C[C@H](N*)[C@H](O)[C@H](C)O1; X2 = COc1cccc2c1C(=O)c1c(O)c3c(c(O)c1C2=O)C[C@@](O)(C(=O)CO)C[C@@H]3O[C@H]1C[C@@H](N*)[C@H](O)[C@H](C)O1; X1 = COc1cccc2c1C(=O)c1c(O)c3c(c(O)c1C2=O)C[C@@](O)(C(=O)CO)C[C@@H]3OC1CC(N*)C(O)C(C)O1; ξPro(4R-OH) = O=C(O)C1C[C@@H](O)CN1; Glutaryl = O=C(CCCC(=O)[*:2])[*:1]; Hyp = O=C(O)[C@@H]1C[C@@H](O)CN1; Chg = N[C@H](C(=O)O)C1CCCCC1; Suc = O=C(CCC(=O)[*:2])[*:1] Bounds are passed on as bounds.

The record followed here is ChEMBL document CHEMBL1145932, “Design and synthesis of novel bioactive peptides and peptidomimetics” (J Med Chem, 2003).

For the compound `C[C@@H](O)[C@@H]1NC(=O)[C@H](CCCCN)N(C)C(=O)[C@@H](Cc2c[nH]c3ccccc23)NC(=O)[C@H](Cc2ccccc2)NC(=O)[C@@H]2CCCN2C(=O)[C@H](Cc2ccccc2)NC1=O`, the Relative potency was determined as 0.5 in data set [1] and 1.6 in data set [3]. Moreover, the Relative potency result in data set [2] is “Active”.
Compound `C[C@H](O)[C@H]1NC(=O)[C@@H](Cc2ccccc2)NC(=O)[C@@H](C)N(C)C(=O)[C@@H](Cc2ccccc2)NC(=O)[C@H](Cc2c[nH]c3ccccc23)CNC(=O)[C@@H](CCCCN)NC1=O` showed a Relative potency in [3] of 0.003.
As to `C[C@@H](O)[C@@H]1NC(=O)[C@H](CCCCN)NC(=O)[C@H](Cc2c[nH]c3ccccc23)NC(=O)[C@H](Cc2ccccc2)NC(=O)CN2CCC[C@@H](NC1=O)C2=O`, the results for the Relative potency in [1], in [4] and in data set [3] were under 0.07, under 0.07 and under 0.005, respectively.
Regarding `C[C@@H](O)[C@@H]1NC(=O)[C@H](CCCCN)NC(=O)[C@@H](Cc2c[nH]c3ccccc23)NC(=O)[C@H](Cc2ccccc2)NC(=O)[C@H](C)N(C)C(=O)[C@H](Cc2ccccc2)NC1=O`, the Relative potency turned out to be 6 in data set [1], 16.7 in data set [4] and 3.5 in [3].
The compound `CC[C@]1(O)CC[C@@H]2CN1CCC1c3ccccc3NC1[C@@H](c1cc3c(cc1OC)N(C)C1C34CCN3CC=C[C@](CC)(C34)[C@@H](O)[C@]1(O)C(=O)OC)[C@H]2C(=O)OC` (stereo partly specified) had a Tumor weight reduction in [5] of 16%. The EC50 (as a rule, the midpoint of the concentration-response curve) in data set [6] was found to be 0.2 µM; in data set [7] it was 0.1 µM; in [9], 0.15 µM. In addition, in data set [8], the PSA stood at 14%. The compound also registered an MTD in data set [10] of 0.26 µM/kg.
Consider `CC[C@]1(O)CC[C@@H]2CN1CCC1c3ccccc3NC1[C@@H](c1cc3c(cc1OC)N(C)C1C34CCN3CC=C[C@](CC)(C34)[C@@H](OC(=O)[C@@H]3CCCN3C(=O)[C@H](CO)NC(=O)[C@H](CO)NC(=O)[C@H](CCC(N)=O)NC(=O)[C@@H](NC(=O)[C@H](CO)NC(=O)[C@H](CO)NC(=O)[C@@H]3CC(O)CN3C(C)=O)C3CCCCC3)[C@]1(O)C(=O)OC)[C@H]2C(=O)OC` (stereo partly specified), for which the MTD in [11] came out at 21.4 µM/kg. Besides, the results for the EC50 in [6], in data set [7] and in [9] were 14 µM, 1.6 µM and over 50 µM, respectively. For the same compound, the half-life – broadly, the time needed for the level to fall by half in the phase considered – in data set [12] came out at 12 min. The same compound had a PSA in data set [8] of 99%. In data set [10], this compound returned a Tumor weight reduction of 85%.
On to `C[C@@H](O)[C@@H]1NC(=O)[C@H](CCCCN)NC(=O)[C@H](Cc2c[nH]c3ccccc23)NC(=O)[C@H](Cc2ccccc2)NC(=O)CN2CCC[C@H](NC1=O)C2=O`, for which the Relative potency in data set [1] is under 0.07; in data set [4], under 0.07; in data set [3], under 0.005.
`COc1cccc2c1C(=O)c1c(O)c3c(c(O)c1C2=O)C[C@@](O)(C(=O)CO)C[C@@H]3OC1CC(NC(=O)[C@H](CC(C)C)NC(=O)[C@H](CO)NC(=O)[C@H](CCC(N)=O)NC(=O)[C@@H](NC(=O)[C@H](CO)NC(=O)[C@H](C)NC(=O)[C@H](CCCCN)NC(C)=O)C2CCCCC2)C(O)C(C)O1` (stereo partly specified) (Ac-KAS[Chg]QSL-X1) had an EC50 in data set [13] of over 100 µM. In addition, in data set [12], the half-life amounted to 10 min.
In the case of `COc1cccc2c1C(=O)c1c(O)c3c(c(O)c1C2=O)C[C@@](O)(C(=O)CO)C[C@@H]3OC1CC(NC(=O)[C@H](CC(C)C)NC(=O)[C@H](CO)NC(=O)[C@H](CCC(N)=O)NC(=O)[C@@H](NC(=O)[C@H](CO)NC(=O)[C@H](C)NC(=O)C2C[C@@H](O)CN2C(C)=O)C2CCCCC2)C(O)C(C)O1` (stereo partly drawn) (Ac-[ξPro(4R-OH)]AS[Chg]QSL-X1), the EC50 in data set [13] was 100 µM; in [7], 4.5 µM. The same compound came in with a half-life in data set [12] of 20 min.
`COc1cccc2c1C(=O)c1c(O)c3c(c(O)c1C2=O)C[C@@](O)(C(=O)CO)C[C@@H]3OC1CC(NC(=O)[C@H](CC(C)C)NC(=O)[C@H](CO)NC(=O)[C@H](CCC(N)=O)NC(=O)[C@H](Cc2ccc(O)cc2)NC(=O)[C@H](CO)NC(=O)[C@H](C)NC(=O)[C@H](CCCCN)NC(C)=O)C(O)C(C)O1` (stereo partly specified) (Ac-KASYQSL-X1) displayed a half-life in data set [12] of 30 min.
`C[C@H](O)[C@H]1NC(=O)[C@@H](Cc2ccccc2)N(C)C(=O)[C@@H](C)NC(=O)[C@@H](Cc2ccccc2)NC(=O)[C@H](Cc2c[nH]c3ccccc23)CNC(=O)[C@@H](CCCCN)NC1=O` yielded a Relative potency in [3] of 0.27.
Take `C[C@H](O)[C@H]1NC(=O)[C@@H](Cc2ccccc2)N(C)C(=O)[C@@H](C)NC(=O)[C@@H](Cc2ccccc2)NC(=O)[C@@H](Cc2c[nH]c3ccccc23)CNC(=O)[C@H](CCCCN)NC1=O`: in data set [3], the Relative potency was 0.88.
In turn, `CC[C@]1(O)CC[C@@H]2CN1CCC1c3ccccc3NC1[C@@H](c1cc3c(cc1OC)N(C)C1C34CCN3CC=C[C@](CC)(C34)[C@@H](OC(C)=O)[C@]1(O)C(=O)OC)[C@H]2C(=O)OC` (stereo partly specified) displayed an EC50 in data set [7] of 0.5 µM.
As to `C[C@@H](O)[C@@H]1NC(=O)[C@H](CCCCN)NC(=O)[C@@H](Cc2c[nH]c3ccccc23)NC(=O)[C@H](Cc2ccccc2)NC(=O)[C@@H]2CSSC[C@H](NC1=O)C(=O)NCCCCCCC(=O)N2`, in data set [14], the Relative potency came to 1.24.
For the compound `C[C@@H](O)[C@@H]1NC(=O)[C@H](CCCCN)NC(=O)[C@@H](Cc2c[nH]c3ccccc23)NC(=O)[C@H](Cc2ccccc2)NC(=O)CN2CC[C@@H](NC1=O)C2=O`, the Relative potency in [1] is under 0.2; in data set [4], under 0.2; in data set [3], 0.001.
With `C[C@@H](O)[C@@H]1NC(=O)[C@H](CCCCN)NC(=O)[C@@H](Cc2c[nH]c3ccccc23)NC(=O)[C@H](Cc2ccccc2)NC(=O)CN2CC[C@H](NC1=O)C2=O`, the figures for the Relative potency in data set [1], in [4] and in data set [3] were under 0.07, under 0.07 and 0.004, respectively.
As for `COc1cccc2c1C(=O)c1c(O)c3c(c(O)c1C2=O)C[C@@](O)(C(=O)CO)C[C@@H]3OC1CC(NC(=O)C(N)CC(C)C)C(O)C(C)O1` (stereo partly specified), the values for the EC50 in data set [13] and in data set [7] were 14 µM and 6.7 µM, respectively.
In data set [3], `C[C@H](N)C(=O)NCC(=O)N[C@H]1CSSC[C@@H](C(=O)O)NC(=O)[C@H](CO)NC(=O)[C@H]([C@@H](C)O)NC(=O)[C@H](Cc2ccccc2)NC(=O)[C@H]([C@@H](C)O)NC(=O)[C@H](CCCCN)NC(=O)[C@H](Cc2c[nH]c3ccccc23)NC(=O)[C@H](Cc2ccccc2)NC(=O)[C@H](Cc2ccccc2)NC(=O)[C@H](CC(N)=O)NC(=O)[C@H](CCCCN)NC1=O` [SOMATOSTATIN] displayed a Relative potency of 1.
In data set [13], `COc1cccc2c1C(=O)c1c(O)c3c(c(O)c1C2=O)C[C@@](O)(C(=O)CO)C[C@@H]3O[C@H]1C[C@H](NC(=O)[C@H](CC(C)C)NC(=O)[C@H](CO)NC(=O)[C@H](CO)NC(=O)[C@H](CCC(N)=O)NC(=O)[C@H](Cc2ccc(O)cc2)NC(=O)[C@H](CO)NC(=O)[C@H](C)NC(=O)[C@H](CCCCN)NC(=O)[C@H](CC(N)=O)NC(=O)[C@H](C)NC(C)=O)[C@H](O)[C@H](C)O1` (Ac-ANKASYQSSL-{Doxorubicin(3'-N)}) returned a concentration giving a half-maximal response (EC50) of over 100 µM. The compound further displayed a half-life in data set [12] of 100 min.
Take `COc1cccc2c1C(=O)c1c(O)c3c(c(O)c1C2=O)C[C@@](O)(C(=O)CO)C[C@@H]3O[C@H]1C[C@@H](NC(=O)[C@H](CC(C)C)NC(=O)[C@H](CO)NC(=O)[C@H](CCC(N)=O)NC(=O)[C@@H](NC(=O)[C@H](CO)NC(=O)[C@H](C)NC(=O)[C@@H]2C[C@@H](O)CN2C(=O)CCCC(=O)O)C2CCCCC2)[C@H](O)[C@H](C)O1` (Glutaryl-[Hyp]AS[Chg]QSL-X2): the EC50 in data set [13] was over 100 µM; in [7], 5 µM. Moreover, the half-life in [12] was determined as 30 min.
With `COc1cccc2c1C(=O)c1c(O)c3c(c(O)c1C2=O)C[C@@](O)(C(=O)CO)C[C@@H]3OC1CC(NC(=O)[C@H](CC(C)C)NC(=O)[C@H](CO)NC(=O)[C@H](CCC(N)=O)NC(=O)[C@@H](NC(=O)[C@H](CO)NC(=O)[C@H](C)NC(=O)C2C[C@@H](O)CN2C(=O)CCC(=O)O)C2CCCCC2)C(O)C(C)O1` (stereo partly drawn) (Suc-[ξPro(4R-OH)]AS[Chg]QSL-X1), the figures for the 50% effective concentration (EC50) in data set [13] and in data set [7] were 100 µM and 5.7 µM, respectively. Moreover, the half-life in [12] amounted to 55 min.
As for `C[C@@H](O)[C@@H]1NC(=O)[C@H](CCCCN)NC(=O)[C@@H](Cc2c[nH]c3ccccc23)NC(=O)[C@H](Cc2ccccc2)NC(=O)[C@@H]2CCCN2C(=O)[C@H](Cc2ccccc2)N(C)C1=O`, the Relative potency came out at 1.1 in data set [1], 2 in data set [4] and 0.53 in data set [3].
